# Source: patent US20240368135A1 (VERTEX PHARMACEUTICALS INCORPORATED, priority 2021, published 2024)
# pIC50: −log10 of the molar value.
# Molecular target: human NaV 1.8 (Homo sapiens, UniProt Q9Y5Y9)
# Assay: E-VIPR assay detecting and measuring NaV inhibition properties
# Type: cell-based
# Conditions: HEK cells expressing truncated human NaV 1.8; in the presence of human serum (compound numbers followed by *); read-out: IC50 in the E-VIPR Assay, performed in the presence of human serum
# Description: Sodium ion channels are voltage-dependent proteins that can be activated by inducing membrane voltage changes by applying electric fields. The electrical stimulation instrument and methods of use, referred to as E-VIPR, are described in International Publication No. WO 2002/008748 A3 and C.-J. Huang et al. Characterization of voltage-gated sodium channel blockers by electrical stimulation and fluorescence detection of membrane potential, 24 Nature Biotech. 439-46 (2006), both of which are incorporated by reference in their entirety. The instrument comprises a microtiter plate handler, an optical system for exciting the coumarin dye while simultaneously recording the coumarin and oxonol emissions, a waveform generator, a current- or voltage-controlled amplifier, and parallel electrode pairs that are inserted into assay plate wells. Under integrated computer control, this instrument passes user-programmed electrical stimulus protocols to cells within the wells of the microtiter plate.
# 16-20 hours prior to running the assay on E-VIPR, HEK cells expressing a truncated form of human NaV 1.8 with full channel activity were seeded into microtiter 384-well plates, pre-coated with matrigel, at a density of 25,000 cells per well. 2.5-5% KIR2.1 Bacmam virus was added to the final cell suspension before seeding into cell plates. HEK cells were grown in Dulbecco's Modified Eagle's Medium (DMEM) supplemented with 10% FBS (Fetal Bovine Serum, qualified; Sigma #F4135), 1% NEAA (Non-Essential Amino Acids, Gibco #11140), 1% HEPES (Gibco #15630), 1% Pen-Strep (Penicillin-Streptomycin; Gibco #15140) and 5 μg/ml Blasticidin (Gibco #R210-01). Cells were expanded in vented cap cell culture flasks, with 90-95% humidity and 5% CO2.
# Human Serum (HS, Millipore #S1P1-01KL, or Sigma SLBR5469V and SLBR5470V as a 50%/50% mixture, for 25% assay final concentration) • Bath 1 Buffer: • Sodium Chloride 160 mM (9.35 g/L), Potassium Chloride, 4.5 mM (0.335 g/L), Glucose 10 mM (1.8 g/L), Magnesium Chloride (Anhydrous) 1 mM (0.095 g/L), Calcium Chloride 2 mM (0.222 g/L), HEPES 10 mM (2.38 g/L) in water. • Na/TMA C1 Bath 1 Buffer: • Sodium Chloride 96 mM (5.61 g/L), Potassium Chloride 4.5 mM (0.335 g/L), Tetramethylammonium (TMA)-Cl 64 mM (7.01 g/L), Glucose 10 mM (1.8 g/L), Magnesium Chloride (Anhydrous) 1 mM (0.095 g/L), Calcium Chloride 2 mM (0.222 g/L) HEPES 10 mM (2.38 g/L) in water. • Hexyl Dye Solution (2× concentration): • Bath 1 Buffer containing 0.5% P-cyclodextrin (made fresh prior to each use, Sigma #C4767), 8 μM CC2-DMPE and 2 μM DiSBAC6(3). The solution was made by adding 10% Pluronic F127 stock equal to combined volumes of CC2-DMPE and DiSBAC6(3). The order of preparation was first mix Pluronic and CC2-DMPE, then add DiSBAC6(3), then while vortexing add Bath 1/p-Cyclodextrin.
# Compound Loading Buffer (2× concentration): Na/TMA C1 Bath1 Buffer containing HS (omitted in experiments run in the absence of human serum (HS)) 50%, VABSC-1 1 mM, BSA 0.2 mg/ml (in Bath-1), KCl 9 mM, DMSO 0.625%.
# 1) To reach the final concentration in each well, 375 nL of each compound was pre-spotted (in neat DMSO) into polypropylene compound plates at 240× desired final concentration from an intermediate stock concentration of 0.075 mM, in an 11 point dose response, 3-fold dilution, resulting in a top dose of 300 nM final concentration in the cell plate. Vehicle control (neat DMSO), and positive control (an established NaV1.8 inhibitor, 25 μM final in assay in DMSO) were added manually to the outermost columns of each plate respectively. The compound plate was backfilled with 45 μL per well of Compound Loading Buffer resulting in a 240 fold dilution of compound following a 1:1 transfer of compound into the cell plate (see Step 6). Final DMSO concentration for all wells in the assay was 0.625% (0.75% DMSO was supplemented to the Compound Loading Buffer for a final DMSO concentration of 0.625%). […]
# human NaV 1.8, sequence (Q9Y5Y9 126-399 limits assumed): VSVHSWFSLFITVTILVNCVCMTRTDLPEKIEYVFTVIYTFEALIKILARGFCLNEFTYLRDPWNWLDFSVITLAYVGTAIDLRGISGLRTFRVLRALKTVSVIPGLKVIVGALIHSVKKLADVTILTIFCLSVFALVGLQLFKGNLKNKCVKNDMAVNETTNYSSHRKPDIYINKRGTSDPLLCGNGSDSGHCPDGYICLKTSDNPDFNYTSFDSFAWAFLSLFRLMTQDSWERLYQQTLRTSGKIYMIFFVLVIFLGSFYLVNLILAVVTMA
# human NaV 1.8, sequence (Q9Y5Y9 660-890 limits assumed): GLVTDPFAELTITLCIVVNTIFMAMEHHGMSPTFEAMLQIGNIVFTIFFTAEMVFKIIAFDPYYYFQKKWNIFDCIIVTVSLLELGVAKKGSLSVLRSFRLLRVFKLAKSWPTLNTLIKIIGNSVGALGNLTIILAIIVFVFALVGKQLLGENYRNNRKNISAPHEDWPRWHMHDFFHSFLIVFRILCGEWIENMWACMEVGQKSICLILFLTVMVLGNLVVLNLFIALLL
# human NaV 1.8, sequence (Q9Y5Y9 1148-1722 limits assumed): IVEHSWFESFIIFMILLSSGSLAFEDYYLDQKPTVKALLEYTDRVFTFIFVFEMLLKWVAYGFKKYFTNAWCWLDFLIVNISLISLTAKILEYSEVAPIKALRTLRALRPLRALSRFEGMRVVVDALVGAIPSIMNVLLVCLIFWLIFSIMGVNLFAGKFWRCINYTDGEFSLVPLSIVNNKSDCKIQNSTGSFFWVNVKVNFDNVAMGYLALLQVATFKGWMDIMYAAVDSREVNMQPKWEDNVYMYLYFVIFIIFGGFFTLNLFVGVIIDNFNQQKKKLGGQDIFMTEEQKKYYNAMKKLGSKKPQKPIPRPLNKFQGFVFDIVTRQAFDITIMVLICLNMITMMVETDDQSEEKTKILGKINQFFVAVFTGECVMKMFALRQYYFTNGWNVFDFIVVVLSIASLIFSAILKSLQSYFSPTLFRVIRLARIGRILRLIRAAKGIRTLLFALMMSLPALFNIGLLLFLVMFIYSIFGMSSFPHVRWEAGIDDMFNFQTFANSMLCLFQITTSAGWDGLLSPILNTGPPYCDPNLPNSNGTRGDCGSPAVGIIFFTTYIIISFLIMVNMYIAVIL
row,SMILES,pIC50
1,"C[C@H]1[C@@H](c2ccc(F)c(F)c2OC(F)F)[C@H](C(=O)Nc2cc(S(C)(=O)=O)c[n+]([O-])c2)O[C@@]1(C)C(F)(F)F (single isomer, unassigned) [Compound 88]",6.00 to 7.00
2,CCOc1c(C2CC(C)(C(F)(F)F)OC2C(=O)Nc2ccn3c(OC)nnc3c2)ccc(F)c1F (stereo not drawn) [Compound 708],6.00 to 7.00
3,"COc1c([C@H]2[C@H](C(=O)Nc3ccnc(C(CO)OC)c3)O[C@@](C)(C(F)(F)F)[C@H]2C)ccc(F)c1F (single isomer, unassigned) [Compound 249, rel-(2R*,3S*,4S*,5R*)-3-(3,4-difluoro-2-methoxyphenyl)-N-(2-(2-hydroxy-1-methoxyethyl)pyridin-4-yl)-4,5-dimethyl-5-(trifluoromethyl)tetrahydrofuran-2-carboxamide]",> 8.00

# Same assay, conditions: HEK cells expressing truncated human NaV 1.8; no human serum; read-out: IC50 in the E-VIPR Assay
row,SMILES,pIC50
1,"COc1c([C@H]2[C@H](C(=O)Nc3cc(C(C)(N)CO)ncc3F)O[C@@](C)(C(F)(F)F)[C@H]2C)ccc(F)c1F (single isomer, unassigned) [Compound 360]",> 8.00
2,"CNC(=O)c1ccc(NC(=O)[C@@H]2O[C@@](C)(C(F)(F)F)[C@@H](C)[C@H]2c2ccc(F)c(C(F)F)c2OC)cn1 (stereo in doubt) [Compound 170, rel-5-((2R,3S,4S,5R)-3-(3-(difluoromethyl)-4-fluoro-2-methoxyphenyl)-4,5-dimethyl-5-(trifluoromethyl)tetrahydrofuran-2-carboxamido)-N-methylpicolinamide]",> 8.00
3,"Cc1nocc1NC(=O)[C@@H]1O[C@@](C)(C(F)(F)F)[C@@H](C)[C@H]1c1ccc(F)c(F)c1OC[C@@H](C)N1CC2(COC2)C1 [Compound 624, (2R,3S,4S,5R)-3-[3,4-difluoro-2-[(2R)-2-(2-oxa-6-azaspiro[3.3]heptan-6-yl)propoxy]phenyl]-4,5-dimethyl-N-(3-methylisoxazol-4-yl)-5-(trifluoromethyl)tetrahydrofuran-2-carboxamide]",6.00 to 7.00
4,"COc1c([C@H]2[C@H](C(=O)Nc3cc(C4(N(C)C)COC4)ncc3F)O[C@@](C)(C(F)(F)F)[C@H]2C)ccc(F)c1F [Compound 363, (2R,3S,4S,5R)-3-(3,4-difluoro-2-methoxyphenyl)-N-(2-(3-(dimethylamino)oxetan-3-yl)-5-fluoropyridin-4-yl)-4,5-dimethyl-5-(trifluoromethyl)tetrahydrofuran-2-carboxamide]",7.00 to 8.00
5,"C[C@H]1[C@@H](c2ccc(F)c(F)c2OC(F)F)[C@H](C(=O)Nc2cc(S(C)(=O)=O)ccn2)O[C@@]1(C)C(F)(F)F (single isomer, unassigned) [Compound 72]",7.00 to 8.00
6,"COc1c([C@H]2[C@H](C(=O)Nc3ccc4cnnn4c3)O[C@@](C)(C(F)(F)F)[C@H]2C)ccc(F)c1C(F)F (stereo in doubt) [Compound 161, rel-(2R,3S,4S,5R)—N-([1,2,3]triazolo[1,5-a]pyridin-6-yl)-3-(3-(difluoromethyl)-4-fluoro-2-methoxyphenyl)-4,5-dimethyl-5-(trifluoromethyl)tetrahydrofuran-2-carboxamide]",> 8.00
7,C[C@H]1[C@@H](c2ccc(F)c(F)c2OCCN2CC(F)C2)[C@H](C(=O)Nc2ccc3nncn3c2)O[C@@]1(C)C(F)(F)F [Compound 635],7.00 to 8.00
8,"COc1c([C@@H]2C[C@](C)(C(F)(F)F)O[C@H]2C(=O)Nc2ccnc([C@H](O)CO)c2)ccc(F)c1C (single isomer, unassigned) [Compound 704]",7.00 to 8.00
9,"COc1c([C@H]2[C@H](C(=O)NC(C)C(=O)NC3CC3)O[C@@](C)(C(F)(F)F)[C@H]2C)ccc(F)c1F (stereo partly drawn) [Compound 297, (2R,3S,4S,5R)-N-(1-(cyclopropylamino)-1-oxopropan-2-yl)-3-(3,4-difluoro-2-methoxyphenyl)-4,5-dimethyl-5-(trifluoromethyl)tetrahydrofuran-2-carboxamide]",≤ 6.00
10,"C[C@H]1[C@@H](c2ccc(F)c(F)c2O[C@H]2C[C@@H](O)C2)[C@H](C(=O)Nc2ccc(C(N)=O)nc2)O[C@@]1(C)C(F)(F)F [Compound 655, 5-((2R,3S,4S,5R)-3-(3,4-difluoro-2-((1S,3R)-3-hydroxycyclobutoxy)phenyl)-4,5-dimethyl-5-(trifluoromethyl)tetrahydrofuran-2-carboxamido)picolinamide]",7.00 to 8.00
11,"COc1c([C@H]2[C@H](C(=O)Nc3ccc(C(=O)N(C)S(C)(=O)=O)nc3)O[C@@](C)(C(F)(F)F)[C@H]2C)ccc(F)c1F [Compound 376, 5-[[(2R,3S,4S,5R)-3-(3,4-difluoro-2-methoxy-phenyl)-4,5-dimethyl-5-(trifluoromethyl)tetrahydrofuran-2-carbonyl]amino]-N-methyl-N-methylsulfonyl-pyridine-2-carboxamide]",7.00 to 8.00
12,"COCC(O)c1cc(NC(=O)[C@@H]2O[C@@](C)(C(F)(F)F)[C@@H](C)[C@H]2c2ccc(F)c(F)c2OCCN2CC3CC(C2)O3)ccn1 (single isomer, unassigned) [Compound 610, rel-(2R*,3S*,4S*,5R*)-3-(2-(2-(6-oxa-3-azabicyclo[3.1.1]heptan-3-yl)ethoxy)-3,4-difluorophenyl)-N-(2-(1-hydroxy-2-methoxyethyl)pyridin-4-yl)-4,5-dimethyl-5-(trifluoromethyl)tetrahydrofuran-2-carboxamide]",7.00 to 8.00
13,"COc1c(C2C(C(=O)Nc3cncnc3)OC(C)(C(F)(F)F)C2C)ccc(F)c1F (single isomer, unassigned) [Compound 37, 3-(3,4-difluoro-2-methoxy-phenyl)-4,5-dimethyl-N-pyrimidin-5-yl-5-(trifluoromethyl)tetrahydrofuran-2-carboxamide]",≤ 6.00
14,"COc1c([C@H]2[C@H](C(=O)Nc3cncc(N4C(=O)CN(C)C[C@H]4C)c3)O[C@@](C)(C(F)(F)F)[C@H]2C)ccc(F)c1F [Compound 535, (2R,3S,4S,5R)-3-(3,4-difluoro-2-methoxyphenyl)-N-(5-((R)-2,4-dimethyl-6-oxopiperazin-1-yl)pyridin-3-yl)-4,5-dimethyl-5-(trifluoromethyl)tetrahydrofuran-2-carboxamide]",7.00 to 8.00
15,"C=C(CO)COc1c([C@H]2[C@H](C(=O)Nc3cn(C(F)F)nc3C)O[C@@](C)(C(F)(F)F)[C@H]2C)ccc(F)c1F [Compound 601, (2R,3S,4S,5R)-3-[3,4-difluoro-2-[2-(hydroxymethyl)allyloxy]phenyl]-N-[1-(difluoromethyl)-3-methyl-pyrazol-4-yl]-4,5-dimethyl-5-(trifluoromethyl)tetrahydrofuran-2-carboxamide]",> 8.00
16,"COc1c([C@H]2[C@H](C(=O)Nc3ccc(NS(C)(=O)=O)nc3)O[C@@](C)(C(F)(F)F)[C@H]2C)ccc(F)c1F [Compound 526, (2R,3S,4S,5R)-3-(3,4-difluoro-2-methoxy-phenyl)-N-[6-(methanesulfonamido)-3-pyridyl]-4,5-dimethyl-5-(trifluoromethyl)tetrahydrofuran-2-carboxamide]",7.00 to 8.00
17,"COc1c([C@H]2[C@H](C(=O)Nc3ccnc(CO)c3)O[C@@](C)(C(F)(F)F)[C@H]2C)ccc(F)c1F (single isomer, unassigned) [Compound 14]",> 8.00
18,"C[C@@H]1[C@H](c2ccc(F)c(F)c2OC(F)F)[C@@H](C(=O)Nc2ccn(C)c(=O)c2)O[C@]1(C)C(F)(F)F (single isomer, unassigned) [Compound 77]",≤ 6.00
